Test results reported in article PMC12750888, “Design, synthesis, and anti-Toxoplasma gondii evaluation of β-carboline derivatives” (Parasites & Vectors, 2025).

Key:
[1] = system: Vero cells; assay: Cell viability assay (CCK-8) on Vero cells; type: cell-based, African green monkey; settings: 24 h; for Cytotoxicity: CCK-8, tested up to 30 µM; for inhibition at 30 µM: Chlorocebus sabaeus, CCK-8, read-out: Inhibition rate of Vero cell at 30 μM
Procedure: African green monkey kidney (Vero) cells were cultured in Dulbecco’s modified Eagle’s medium (DMEM) supplemented with 100 U/mL penicillin, 100 μg/mL streptomycin, 1% nonessential amino acids (NEAAs), 1% GlutaMAX and 10% fetal bovine serum (FBS) at 37 °C in an atmosphere of 5% CO2. […] DMEM without a drug was used as a control. After 24 h of treatment, Cell Counting Kit-8 (CCK-8, CA1210, Solarbio) was used to determine cell viability at 450 nm via a Multiskan GO instrument.

[2] = system: T. gondii RH tachyzoites; assay: Screening for anti-T. gondii activity in vitro (plaque and qPCR assays); type: cell-based, Toxoplasma gondii; settings: for inhibition of growth at 30 µM: Toxoplasma gondii, Vero, 24 h, RH tachyzoites in Vero cells, plaque and qPCR assays
Procedure: The anti-T. gondii activity of compounds NBZ001‒037 was examined via RT-PCR. Confluent Vero cells in 6-well plates were infected with 2 × 10^5 T. gondii RH tachyzoites per well, incubated for 6 h, and then washed twice with PBS to remove extracellular tachyzoites. The cell monolayers were incubated with DMEM (1% FBS) containing various concentrations of NBZ001‒037 for 24 h. Total genomic DNA from each sample was isolated with the DNAiso reagent (Takara), and the levels of the 529-bp repeat element of T. gondii were measured by qPCR. A plaque assay was used to evaluate the activity of the compounds. The detailed experimental procedures were described in previous studies.

[3] = system: T. gondii RH strain tachyzoites; assay: In vitro anti-invasion assay (qPCR; RH-GFP fluorescence microscopy); type: cell-based, Toxoplasma gondii; settings: 0.4 μM, RH strain, qPCR
Procedure: Vero cells were seeded onto 6-well plates and cultured with DMEM supplemented with 10% FBS to obtain cell monolayers. The medium was replaced with fresh DMEM (1% FBS) containing NBZ023 or NBZ035 (0.24–30 μM), pyrimethamine (0.4 μM) or no drugs (as a control), and tachyzoites (2 × 10^6 per well) were then inoculated into the confluent Vero cell monolayers. At 2 h after infection, the cell monolayers were washed twice with PBS to remove extracellular tachyzoites and then total genomic DNA from the cell samples was isolated with the DNAiso reagent (Takara). The anti-invasion capabilities of NBZ023 and NBZ035 were determined by qPCR. The T. gondii RH strain with green fluorescence was seeded as described above. After infection, the cells were incubated for 36 h to fully observe the infection status of the parasites via fluorescence microscopy.

| SMILES | Cytotoxicity [1] | inhibition at 30 µM [1] | improved efficacy over NBZ022 ([2]; 30 μM screening, ortho-Cl versus NBZ022) | inhibition of growth at 30 µM [2] | anti-invasion rate [3] |
| --- | --- | --- | --- | --- | --- |
| O=C(Nc1ccccc1)c1ccc2[nH]c3c(C(=O)c4ccccc4Cl)nccc3c2c1 [NBZ021] | > 30.00 µM | 11.4% | 66.21% | > 50% |  |
| CN(C)c1ccc(NC(=O)c2ccc3[nH]c4c(C(=O)c5ccccc5Cl)nccc4c3c2)cc1 [NBZ032] | > 30.00 µM | 16% |  | 73% |  |
| COc1ccc(C(=O)c2nccc3c2[nH]c2ccc(C(=O)O)cc23)cc1 [NBZ012] | > 30.00 µM | 7.66% |  | 21.9% |  |
| O=C(NCc1ccco1)c1ccc2[nH]c3c(C(=O)c4ccccc4Br)nccc3c2c1 [NBZ017] | > 30.00 µM | 10.8% |  | 43.4% |  |
| CC(=O)OC[C@H]1O[C@@H](OC(C)=O)[C@H](NC(=O)c2ccc3[nH]c4c(C(=O)c5ccccc5Br)nccc4c3c2)[C@@H](OC(C)=O)[C@@H]1OC(C)=O [NBZ019] | > 30.00 µM | 9.56% |  | 35.9% |  |
| Cc1ccc2[nH]c3c(C(=O)c4ccccc4Br)nccc3c2c1 [NBZ005] | > 30.00 µM | 43.9% |  | 33.9% |  |
| CN(C)c1ccc(NC(=O)c2ccc3[nH]c4c(C(=O)c5ccccc5Br)nccc4c3c2)cc1 [NBZ033] | > 30.00 µM | 11.2% |  | 14.3% |  |
| O=C(O)c1ccc2[nH]c3c(C(=O)c4ccccc4Br)nccc3c2c1 [NBZ010] | > 30.00 µM | 16.6% |  | 45.2% |  |
| Cc1ccccc1NC(=O)c1ccc2[nH]c3c4[n+](ccc3c2c1)-c1ccccc1C4=O [NBZ036] | > 30.00 µM | 9.02% |  | 42.9% |  |
| Cc1ccc(NC(=O)c2ccc3[nH]c4c(C(=O)c5ccccc5Cl)nccc4c3c2)cc1 [NBZ025] | > 30.00 µM | 3.96% |  | 32.6% |  |
| O=C(c1ccccc1Br)c1nccc2c1[nH]c1ccccc12 [NBZ002] | > 30.00 µM | 27.2% |  | 42.2% |  |
| Cc1ccc2[nH]c3c(C(=O)c4cccc(Br)c4)nccc3c2c1 [NBZ006] | > 30.00 µM | 13.1% |  | 33.3% |  |
| O=C(O)c1ccc2[nH]c3c(C(=O)c4ccc(Br)cc4)nccc3c2c1 [NBZ011] | > 30.00 µM | 3.88% |  | > 50% |  |
| Cc1ccc(NC(=O)c2ccc3[nH]c4c(C(=O)c5ccccc5Br)nccc4c3c2)cc1 [NBZ026] | > 30.00 µM | 23.6% |  | 21.1% |  |
| CN(C)c1cccc(NC(=O)c2ccc3[nH]c4c(C(=O)c5ccccc5Cl)nccc4c3c2)c1 [NBZ030] | > 30.00 µM | 12.8% |  | 69.2% |  |
| O=C(O)c1ccc2[nH]c3c(C(=O)c4ccccc4Cl)nccc3c2c1 [NBZ009] | > 30.00 µM | 15% |  | 32.1% |  |
| Cc1ccc2[nH]c3c(C(=O)c4ccccc4Cl)nccc3c2c1 [NBZ004] | > 30.00 µM | 5.35% |  | 43.8% |  |
| COc1ccc(NC(=O)c2ccc3[nH]c4c(C(=O)c5ccccc5Br)nccc4c3c2)cc1 [NBZ029] | > 30.00 µM | 27.9% |  | 30.3% |  |

| SMILES | Cytotoxicity [1] | inhibition at 30 µM [1] | improved efficacy over NBZ022 ([2]; 30 μM screening, ortho-Cl versus NBZ022) | inhibition of growth at 30 µM [2] | anti-invasion rate [3] |
| --- | --- | --- | --- | --- | --- |
| O=C(Nc1cccc2ccccc12)c1ccc2[nH]c3c4[n+](ccc3c2c1)-c1ccccc1C4=O [NBZ034] |  | 58.2% |  |  |  |
| O=C(Nc1ccccc1)c1ccc2[nH]c3c(C(=O)c4ccccc4Br)nccc3c2c1 [NBZ022] | > 30.00 µM | 46.8% |  | 17.4% |  |
| COc1ccc(NC(=O)c2ccc3[nH]c4c(C(=O)c5ccccc5Cl)nccc4c3c2)cc1 [NBZ028] | > 30.00 µM | 19.3% |  |  |  |
| O=C(NC1CCCCC1)c1ccc2[nH]c3c(C(=O)c4ccccc4Br)nccc3c2c1 [NBZ015] | > 30.00 µM | 3.68% |  | 37.1% |  |
| CN(C)c1cccc(NC(=O)c2ccc3[nH]c4c(C(=O)c5ccccc5Br)nccc4c3c2)c1 [NBZ031] | > 30.00 µM | 6.47% |  | 72.7% |  |
| Cc1ccccc1NC(=O)c1ccc2[nH]c3c(C(=O)c4ccccc4Br)nccc3c2c1 [NBZ024] | > 30.00 µM | 24.4% |  | 3.45% |  |
| NC(=O)c1ccc2[nH]c3c(C(=O)c4ccccc4Br)nccc3c2c1 [NBZ013] | > 30.00 µM | 11.2% |  | 34.5% |  |
| COc1ccc(C(=O)c2nccc3c2[nH]c2ccc(C)cc23)cc1 [NBZ008] | > 30.00 µM | 13.1% |  | 17.3% |  |
| Cc1ccc2[nH]c3c(C(=O)c4ccc(Br)cc4)nccc3c2c1 [NBZ007] | > 30.00 µM | 13.5% |  | 31.2% |  |
| O=C(Nc1cccc2ccccc12)c1ccc2[nH]c3c(C(=O)c4ccccc4Br)nccc3c2c1 [NBZ020] | > 30.00 µM | 8.15% |  | 7.22% |  |
| CCc1nc(N)nc(N)c1-c1ccc(Cl)cc1 [pyrimethamine, reference compound] |  |  |  |  | 26.77% |
| O=C(c1ccccc1Cl)c1nccc2c1[nH]c1ccc(C(=O)N3CCOCC3)cc12 [NBZ016] | > 30.00 µM | 10.5% |  | 37.4% |  |
| CCCCNC(=O)c1ccc2[nH]c3c(C(=O)c4ccccc4Br)nccc3c2c1 [NBZ014] | > 30.00 µM | 19.7% |  | 2.09% |  |
| O=C(c1ccccc1Cl)c1nccc2c1[nH]c1ccccc12 [NBZ001] | > 30.00 µM | 24.2% |  | 31.3% |  |
| O=C(c1ccccc1Br)c1nccc2c1[nH]c1ccc(Br)cc12 [NBZ003] | > 30.00 µM | 21.8% |  | 40.8% |  |
| Cc1ccc(NC(=O)c2ccc3[nH]c4c5[n+](ccc4c3c2)-c2ccccc2C5=O)cc1.[Cl-] [NBZ037, 13-oxo-9-(p-tolylcarbamoyl)-12,13-dihydropyrido[1,2-a:3,4-b’]diindol-5-ium chloride] | > 30.00 µM | 29.7% |  |  |  |
| COc1ccccc1NC(=O)c1ccc2[nH]c3c(C(=O)c4ccccc4Cl)nccc3c2c1 [NBZ027, (2-Chlorobenzoyl)-N-(2-methoxyphenyl)-9H-pyrido[3,4-b]indole-6-carboxamide] | > 30.00 µM | 27.9% |  |  |  |
